One substance from patent publication US20180353568A1 (priority 2015, published 2018) can be followed below.

“Also recorded” adds a separate entry of the source.

Usually IC50 stands for the midpoint of a concentration-inhibition curve.

Data set [1] deals with HIV-luc/Zaire EBOV-GP2014 pseudotype virus. It counts as cell-based, Ebola virus.
The test system is the same in data set [2]. It counts as cell-based, Ebola virus. This is another data set of the same source.
For data set [3], the system named is envelope protein GP of Ebola virus (HIV-luc/EBOV-GP pseudotype virus). It counts as cell-based.
In data set [4] the test system is HIV-luc/Zaire EBOV-GP2014 pseudotype virus. It counts as cell-based, Ebola virus. This is another data set of the same source.
In data set [5] the test system is envelope G protein of vesicular stomatitis virus, VSV-G (HIV-luc/VSV-G pseudotype virus). In kind it is cell-based.
Data set [6] deals with HIV-luc/Zaire EBOV-GP2014 pseudotype virus. In kind it is cell-based, Ebola virus. The source holds these as a separate data set.

On to teicoplanin, for which the “inhibitory effect on virus in A549 cells” value in data set [1] is on record as “good inhibitory effect”. Further, in data set [2], the “inhibitory effect on virus in Hela cells” value is on record as “good inhibitory effect”. In addition, the “inhibitory effect on the envelope protein of Ebola virus, EBOV-GP (entry)” value in data set [3] is recorded as “can inhibit the entry of Ebola virus; also recorded: good inhibitory effect”. The IC50 in data set [3] (read-out: IC50 of teicoplanin (inhibition of Ebola pseudovirus infecting 293T cells)) stood at 200 nM. The “inhibitory effect on virus in THP-1 cells” value in data set [4] is on record as “good inhibitory effect”. For the same substance, the “inhibitory effect on the envelope G protein of vesicular stomatitis virus, VSV-G” value in data set [5] is on record as “no inhibitory effect”. Further, in the data set with 293T cells, the “cytotoxicity in 293T cells” value is “non-cytotoxic” and the “toxicity (FIG. 3, CC50 test)” value is listed as “low”. For the same substance, the “inhibitory effect on virus in HUVECs” value in data set [6] is “good inhibitory effect”.
